From patent US10822346B2, “Meglumine salts of thienopyrimidines” (Cardurion Pharmaceuticals, LLC, priority 2018, dated 2020)

Tests used:
[1] = Hygroscopicity by Dynamic Vapor Sorption; format: physicochemical; conditions: for Hygroscopicity: DVS weight gain: Dynamic Vapor Sorption @ 25° C./95% RH
Source text: (§1) Initial studies identified thienopyrimidine carboxylic acids as PDE9 inhibitors which could be used to treat or prevent HF. […] In further studies, the potassium salt was identified as a candidate for formulation because it was soluble, provided high exposure in preclinical toxicology studies, and was relatively easy to scale up. […] Unexpectedly the monohydrate crystalline meglumine salt of the thienopyrimidine compounds afforded the desired properties for a pharmaceutical formulation, as shown in Table 5.

[2] = Dog pharmacokinetic study; format: in vivo, dogs; conditions: for AUClast / Cmax / Tmax: healthy dogs, N = 4 animals/arm, fasted overnight, pentagastrin 30 min prior to dosing, mean plasma profile
Method: Healthy dogs were used to study different salt candidates to evaluate the pharmacokinetic profile of each candidate. Six treatment arms were employed:
Animals were fasted overnight with free access to water. Pentagastrin (PG) (6 μg/kg, IM) was administered 30 min prior to dosing. Food was resumed 4 h post dose.

[3] = Solid form stability on drying under vacuum; format: physicochemical; conditions: crystalline salts; crystal form after drying
Source text: as §1

[4] = Exposure in preclinical toxicology studies; conditions: in vivo
Source text: as §1

[5] = Solubility in pharmaceutically acceptable formulation; format: physicochemical; conditions: in any pharmaceutically acceptable formulation
Source text: as §1

Row | Solubility (in words) [5] | Compound | Hygroscopicity: DVS weight gain [1] | AUClast [2] [ng·h/mL] | Cmax [2] [ng/mL] | Tmax [2] [h] | Stability: Drying under vaccum @50 for 36 hrs [3] | Hygroscopicity (in words) [1] | Pharmacokinetic profile (in words) ([2]; dogs, compared with other salts) | Exposure compared with free acid and potassium salt dosed as solutions (in words) ([2]; dogs, powder in a capsule (PIC)) | Exposure in preclinical toxicology studies (in words) [4]
1 |  | Cc1c(C(=O)O)sc2nc(Cc3ccc(Cl)c(Cl)c3)[nH]c(=O)c12.NCCCC[C@H](N)C(=O)O [compound 9, lysine 2-(3,4-dichlorobenzyl)-5-methyl-4-oxo-3,4-dihydrothieno[2,3-d]pyrimidine-6-carboxylate] | 6.4% | 495 | 78.4 | 3.50 | changes |  |  |  | 
2 |  | CNCC(O)C(O)C(O)C(O)CO.Cc1c(C(=O)O)sc2nc(Cc3ccc(Cl)c(Cl)c3)[nH]c(=O)c12.O [compound 4, meglumine 2-(3,4-dichlorobenzyl)-5-methyl-4-oxo-3,4-dihydrothieno[2,3-d]pyrimidine-6-carboxylate monohydrate] | 0.7% | 1008 | 280 | 1.13 | unchanged | low hygroscopicity | superior pharmacokinetic profile | comparable exposure | 
3 | soluble | [K+] [Potassium] | 8-22.5% | 966 | 398 | 1.25 | changes |  |  |  | high exposure
4 |  | Cc1c(C(=O)O)sc2nc(Cc3ccc(Cl)c(Cl)c3)[nH]c(=O)c12.N=C(N)NCCC[C@H](N)C(=O)O [compound 8, arginine 2-(3,4-dichlorobenzyl)-5-methyl-4-oxo-3,4-dihydrothieno[2,3-d]pyrimidine-6-carboxylate] | 5.9% | 705 | 246 | 1.38 | changes |  |  |  | 
